The results in this text go back to US7674887B2, “Thrombopoietin mimetics” (GlaxoSmithKline LLC, priority 2000, dated 2010).

One data set concerns human UT7TPO cell line. Put plainly: Proliferation assay using the human UT7TPO cell line. In kind it is cell-based. As to conditions: UT7TPO cells. The source says: Proliferation Assay Some of the more preferred compounds of this invention were active in an in vitro proliferation assay using the human UT7TPO cell line. UT7TPO cells are a human megakaryoblastic cell line that express Tpo-R, whose survival and growth is dependent on the presence of TPO (Komatsu et al. Blood 1996, 87,4552).

By melting point is commonly meant the temperature of the solid-liquid transition. Take `CC1=NN(c2ccc(C)c(C)c2)C(=O)C1=NNc1ccc(-c2ccc(C(=O)O)cc2)cc1O` (hydrate or solvate) [Example 1, 4′-{N′-[1-(3,4-dimethylphenyl)-3-methyl-5-oxo-1,5-dihydropyrazol-4-ylidene]hydrazino}-3′-hydroxybiphenyl-4-carboxylic acid]: the melting point is 280 °C (dec.).
Consider `CC1=NN(c2ccc(C(C)(C)C)cc2)C(=O)C1=NNc1cccc(-c2cccc(C(=O)O)c2)c1O` (hydrate or solvate) [Example 4, 3′-{N′-[1-(4-tert-butylphenyl)-3-methyl-5-oxo-1,5-dihydropyrazol-4-ylidene]hydrazino}-2′-hydroxybiphenyl-3-carboxylic acid], for which the melting point was 145 °C (dec.).
On the same count and under the same terms, to `CC1=NN(c2ccc(C)c(C)c2)C(=O)C1=NNc1ccc(-c2cccc(C(=O)O)c2)cc1O` [Example 2, 4′-{N′-[1-(3,4-dimethylphenyl)-3-methyl-5-oxo-1,5-dihydropyrazol-4-ylidene]hydrazino}-3′-hydroxybiphenyl-3-carboxylic acid] belongs 282 °C (dec.).
A word on the EC50: it is the concentration that produces a half-maximal response. Low readings indicate higher potency in that assay, high ones lower potency in that assay. Take `CC1=NN(c2ccc(C)c(C)c2)C(=O)C1=NNc1cccc(-c2cccc(C(=O)O)c2)c1O` [Example 3, 3′-{N′-[1-(3,4-dimethylphenyl)-3-methyl-5-oxo-1,5-dihydropyrazol-4-ylidene]hydrazino}-2′-hydroxybiphenyl-3-carboxylic acid]: in the data set with human UT7TPO cell line (Homo sapiens, UT7/TPO), the half-maximal effective concentration (EC50) came to 30 nM. In addition, the “activity relative to TPO in the proliferation assay” value in the data set on human UT7TPO cell line came to 100 % TPO.
As for `Cc1ccc(N2N=C(Cl)C(=NNc3cccc(-c4cccc(C(=O)O)c4)c3O)C2=O)cc1C` [Example 24, 3′-{N′-[3-Chloro-1-(3,4-dimethylphenyl)-5-oxo-1,5-dihydropyrazol-4-ylidene]hydrazino}-2′-hydroxybiphenyl-3-carboxylic acid], the melting point was 210 °C (dec.).
